{"source": "paper PMC3056768", "about": "“Conjugation to the Cell-Penetrating Peptide TAT Potentiates the Photodynamic Effect of Carboxytetramethylrhodamine” (PLoS ONE, 2011)", "key": {"HeLa cells [1]": {"test_system": "HeLa cells", "assay": "Photocytotoxicity of endocytosed peptide after light irradiation (SYTOX Blue staining, membrane blebbing)", "assay_type": "cell-based", "method": "(§1) HeLa (human cervical adenocarcinoma), COS-7 (SV40 transformed African green monkey kidney fibroblast-like cell line) were obtained from ATCC. COLO 316 (human ovarian carcinoma) were obtained from Robert Burghardt (Department of Veterinary Integrative Biosciences, Texas A&M University). Cells were cultured in DMEM supplemented with 10% fetal bovine serum (FBS) and maintained at 37°C in a humidified environment with 5% CO2. Cells were plated in 8-well dishes so that the cells were 70% confluent after 24 h, washed 3 times with L-15 media, incubated with 3 to 10 µM peptides at 37°C for 1 h, washed 3 times with L-15, and imaged. Alternatively, cells were incubated in L-15 at 4°C to inhibit the endocytic uptake of peptides. In this case, cells were imaged with the peptide still present in solution and the low temperature was maintained for the entire duration of imaging. For photosensitization, cells were exposed to light (λex = 560±20 nm) for the indicated time points. Plasma membrane disruption was detected by addition of the cell-impermeable DNA stain SYTOX Blue (5 µM) during or after photosensitization.\nTen to twenty images were acquired for each experiment.\nIrradiances at the specimen were 100 mW/cm^2 when no neutral density filter and no objective were present in the light path (and, for instance 5 mW/cm^2 when ND4 was inserted). Irradiances were measured using a monochromic photometer (model 840-c, Newport, Irvine, CA). Irradiation area has a diameter of 1.3 cm without objective but the light beam is focused into an area of 3×10^−3 cm^2 by the 100× objective. Irradiances can therefore be approximated to be at […] with ND4 or ND1, respectively. Irradiances provided in the figure legends are based on these calculations. To confirm that the irradiances measured on the microscope were accurate, experiments were also reproduced, when possible, using light illumination with a collimated light source from Oriel (Stratford, CT) equipped with a 500 W Hg lamp. Selective irradiation at 560 nm was performed using an analytical line filter (Oriel, 9.4 nm bandwidth). In this case, irradiances of the light beam (diameter of 2.5 cm) could be measured more precisely using the monochromic photometer."}, "HeLa cells [2]": {"test_system": "HeLa cells", "assay": "Toxicity in the absence of light (SYTOX green / DAPI)", "assay_type": "cell-based, human", "details": "concentrations up to 25 µM, 1 h in L-15 at 37°C, washed, additional 4 h, average of 3 experiments", "method": "Supplementary file pone.0017732.s001.tif: Figure S1 Toxicity of TMR-TAT toward HeLa cells in the absence of light. TMR-TAT was incubated at the concentration indicated with cells for 1 hour in L-15 at 37°C. Cells were washed with fresh L-15 and incubated for an additional 4 h. Cells were then treated with L-15 containing DAPI and SYTOX® green. DAPI stains the nucleus of all cells while SYTOX® green only stains the nucleus of dead cells. Cells were imaged by fluorescence microscopy using the DAPI and FITC filters to detect DAPI and SYTOX® green, respectively. For each experiments, five representative images were acquired using the 20× objective and the percentage of dead cells were calculated from the ratio of cells stained by SYTOX® green divided by the number of cells stained by DAPI. The reported data is the average of 3 experiments (3×5 images, ≥1000 cells/experiments) and the error bar represents the standard deviation. (TIF) Click here for additional data file."}, "HeLa cells [3]": {"test_system": "HeLa cells", "assay": "Photosensitization of extracellular peptide at 4°C (endocytosis blocked)", "assay_type": "cell-based, human", "details": "3 µM, 4°C to block endocytosis, irradiated at 560 nm with compound still in the media", "method": "as §1\nIt is therefore possible that the endosomal release observed in the experiments of Figure 1 might be necessary to cause cell death. To investigate whether this is the case, we examined if light-induced cell-death could be observed when the peptides were only localized at the plasma membrane of cells. For these experiments, HeLa cells were first incubated with the peptides (3 µM) at 4°C to block endocytosis. Cells were then irradiated with the peptides still present in the media (the peptide is not retained at the plasma membrane when cells are washed). […] Cells were then washed and observed by fluorescence imaging. […] On the other hand, the membrane damage and cell death obtained after TMR-TAT photosensitization were also observed when hematoporphyrin (HP) or hematoporphyrin derivative (HPD) were used (Fig. 4B). […]"}, "COS-7 cells": {"test_system": "COS-7 cells", "assay": "Photosensitization of endocytosed peptide", "assay_type": "cell-based, African green monkey", "details": "COS-7, 3 µM for 1 h, washed, 560 nm", "method": "as §1, with “In this case, cells were imaged with the peptide still present in solution and the low temperature was maintained for the entire duration of imaging. For photosensitization, cells were exposed to light (λex = 560±20 nm) for the indicated time points.” left out\nTMR-TAT induces cell-death upon light irradiation in HeLa or COS-7 cells. […] Cells were observed using a 10× objective using bright field and fluorescence imaging (CFP filter to detect SYTOX® Blue). […] Cells were observed using a 100× objective using bright field and fluorescence imaging (RFP filter to detect TMR-TAT, pseudocolored red, and CFP filter to detect SYTOX® Blue, pseudo colored blue). […]"}}, "note": "Entries after “also recorded” stand apart in the source; their conditions may differ.", "data": [{"smiles": "CN(C)c1ccc2c(c1)Oc1cc(N(C)C)ccc1C21OC(=O)c2cc(C(=O)NCC(=O)N[C@@H](CCCNC(=N)N)C(=O)N[C@@H](CCCCN)C(=O)N[C@@H](CCCCN)C(=O)N[C@@H](CCCNC(=N)N)C(=O)N[C@@H](CCCNC(=N)N)C(=O)N[C@@H](CCC(N)=O)C(=O)N[C@@H](CCCNC(=N)N)C(=O)N[C@@H](CCCNC(=N)N)C(=O)N[C@@H](CCCNC(=N)N)C(=O)NCC(N)=O)ccc21", "note": "[TMR-TAT]", "values": [{"measurement": "cell destruction, percentage of irradiated cells (SYTOX Blue staining)", "setting": "HeLa cells [1]; endocytosed peptide, 2 sec irradiation at 560 nm, radiant exposure approx. 40 J/cm^2, at least 3000 cells, reproduced at least 3 times", "result": "more than 95%"}, {"measurement": "photocytotoxicity / cell death after irradiation at 560 nm", "setting": "HeLa cells [1]; incubation 1 h 37°C (3 µM; TMR-K9 10 µM), washed, irradiated at 560±20 nm", "result": "rapid necrosis; also recorded: plasma membrane damage and cell death"}, {"measurement": "cytotoxicity in the absence of light", "setting": "HeLa cells [2]", "result": "negligible"}, {"measurement": "light-induced cell death with peptide only extracellular", "setting": "HeLa cells [3]", "result": "dramatic cytoplasmic extrusion, membrane blebbing, shrinkage and cell death"}, {"measurement": "photo-induced activities (endosomal release, blebbing, SYTOX Blue staining)", "setting": "COS-7 cells", "result": "could be reproduced; also recorded: membrane blebs are formed on the cell surface, and the nuclei of cells are stained by SYTOX® Blue"}]}]}
